Source: BindingDB's records for doi:10.1016/S0960-894X(97)00408-3 (1997)

Target: 5-hydroxytryptamine receptor 4 (Rattus norvegicus, UniProt Q62758)
Experiment: Agonist activity against serotonin 5-HT4 receptor in rat tunica muscularis mucosae assay

5-hydroxytryptamine receptor 4, sequence (Q62758 whole entry): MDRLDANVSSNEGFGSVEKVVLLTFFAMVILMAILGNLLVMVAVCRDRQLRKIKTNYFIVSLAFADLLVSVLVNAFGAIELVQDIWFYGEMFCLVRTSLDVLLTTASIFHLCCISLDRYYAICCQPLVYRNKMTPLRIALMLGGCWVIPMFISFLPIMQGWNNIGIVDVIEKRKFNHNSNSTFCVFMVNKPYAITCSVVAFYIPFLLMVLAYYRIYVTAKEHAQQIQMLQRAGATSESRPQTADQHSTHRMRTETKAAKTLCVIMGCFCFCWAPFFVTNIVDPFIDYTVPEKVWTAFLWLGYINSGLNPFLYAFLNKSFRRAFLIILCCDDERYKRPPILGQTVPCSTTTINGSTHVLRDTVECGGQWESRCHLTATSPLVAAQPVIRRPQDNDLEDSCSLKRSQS

| EC50 | SMILES |
| --- | --- |
| 660 nM | COc1cc(N)c(Cl)cc1C(=O)NCC1C2CC3CC1CN3C2 (configuration not stated) [4-Amino-N-(3-aza-tricyclo[3.3.1.0*3,7*]non-9-ylmethyl)-5-chloro-2-methoxy-benzamide] |
| 382 nM | COc1cc(N)c(Cl)cc1C(=O)NC1C2CC3CC1CN3C2 (configuration not stated) [4-Amino-N-(3-aza-tricyclo[3.3.1.0*3,7*]non-9-yl)-5-chloro-2-methoxy-benzamide] |
